The results in this text go back to ChEMBL document CHEMBL1201862, “PubChem BioAssay data set” (2004).

Active and inactive are the calls of the source. A value given as a limit tells only on which side of the number the result lay.

Common to all, as to format: functional
The target of experiment [1] is Dual specificity tyrosine-phosphorylation-regulated kinase 1A (Homo sapiens, UniProt Q13627).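 Further: measured against DYRK1A as one member of a broad kinome profiling panel.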
Experiment [2] addresses Platelet-derived growth factor receptor alpha (Homo sapiens, UniProt P16234). As to the kind of experiment: Navigating the Kinome. Panel member name: PDGFRA.
Experiment [3] has as its target Tyrosine-protein kinase Fyn (Homo sapiens, UniProt P06241).
Experiment [4] addresses Dual specificity mitogen-activated protein kinase kinase 1 (Homo sapiens, UniProt Q02750). As to the kind of experiment: Navigating the Kinome. Panel member name: MAP2K1.
Experiment [5] deals with Serine/threonine-protein kinase pim-1 (Homo sapiens, UniProt P11309).
Chain of Serine/threonine-protein kinase pim-1 (P11309 whole entry): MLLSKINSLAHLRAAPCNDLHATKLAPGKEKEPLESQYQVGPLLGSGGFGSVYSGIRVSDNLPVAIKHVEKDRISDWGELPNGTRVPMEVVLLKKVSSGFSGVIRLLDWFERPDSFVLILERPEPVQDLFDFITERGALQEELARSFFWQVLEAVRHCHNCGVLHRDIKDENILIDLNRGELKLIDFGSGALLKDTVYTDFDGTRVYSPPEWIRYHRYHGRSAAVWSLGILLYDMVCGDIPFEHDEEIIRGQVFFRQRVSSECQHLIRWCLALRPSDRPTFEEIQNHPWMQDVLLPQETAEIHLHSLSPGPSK
For experiment [6], the target named is T1, Serine/threonine-protein kinase Nek2 (Homo sapiens, UniProt P51955).
T1 sequence (P51955 whole entry): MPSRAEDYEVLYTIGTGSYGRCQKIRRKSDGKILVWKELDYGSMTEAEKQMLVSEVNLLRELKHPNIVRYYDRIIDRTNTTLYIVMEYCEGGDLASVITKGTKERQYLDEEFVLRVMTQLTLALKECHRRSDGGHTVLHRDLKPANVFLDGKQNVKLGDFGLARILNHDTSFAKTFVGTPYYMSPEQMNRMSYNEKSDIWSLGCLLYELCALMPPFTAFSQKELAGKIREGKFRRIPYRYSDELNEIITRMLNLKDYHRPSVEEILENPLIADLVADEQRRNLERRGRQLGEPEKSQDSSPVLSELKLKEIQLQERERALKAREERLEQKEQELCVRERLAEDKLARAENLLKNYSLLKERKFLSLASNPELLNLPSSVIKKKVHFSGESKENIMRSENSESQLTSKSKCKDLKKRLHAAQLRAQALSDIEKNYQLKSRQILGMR

The target in experiment [7] is Mitogen-activated protein kinase 9 (Homo sapiens, UniProt P45984).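 Further: value from a kinome panel profiling assay, MAPK9 panel entry.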
Chain of Mitogen-activated protein kinase 9 (P45984 whole entry): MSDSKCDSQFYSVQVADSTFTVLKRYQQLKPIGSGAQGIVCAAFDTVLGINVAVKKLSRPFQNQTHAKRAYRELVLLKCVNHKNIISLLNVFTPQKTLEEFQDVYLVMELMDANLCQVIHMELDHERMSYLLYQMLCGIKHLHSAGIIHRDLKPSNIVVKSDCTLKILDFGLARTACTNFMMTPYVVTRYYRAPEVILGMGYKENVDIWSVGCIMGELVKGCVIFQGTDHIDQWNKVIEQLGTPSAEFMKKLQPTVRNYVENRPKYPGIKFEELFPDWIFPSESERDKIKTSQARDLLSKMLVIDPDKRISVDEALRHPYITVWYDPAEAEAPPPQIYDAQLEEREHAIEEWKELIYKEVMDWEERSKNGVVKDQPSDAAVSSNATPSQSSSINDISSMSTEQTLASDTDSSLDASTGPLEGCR
Experiment [8] has as its target Dual specificity tyrosine-phosphorylation-regulated kinase 1B (Homo sapiens, UniProt Q9Y463). The experiment is described as follows: Navigating the Kinome. Panel member name: DYRK1B.
Experiment [9] has as its target Macrophage-stimulating protein receptor (Homo sapiens, UniProt Q04912). The experiment is described as follows: Navigating the Kinome. Panel member name: MST1R.
In experiment [10] the target is T2, Tyrosine-protein kinase receptor TYRO3 (Homo sapiens, UniProt Q06418).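 Further: TYRO3 value obtained as one member of a kinome-wide profiling panel.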
T2 sequence (Q06418 whole entry): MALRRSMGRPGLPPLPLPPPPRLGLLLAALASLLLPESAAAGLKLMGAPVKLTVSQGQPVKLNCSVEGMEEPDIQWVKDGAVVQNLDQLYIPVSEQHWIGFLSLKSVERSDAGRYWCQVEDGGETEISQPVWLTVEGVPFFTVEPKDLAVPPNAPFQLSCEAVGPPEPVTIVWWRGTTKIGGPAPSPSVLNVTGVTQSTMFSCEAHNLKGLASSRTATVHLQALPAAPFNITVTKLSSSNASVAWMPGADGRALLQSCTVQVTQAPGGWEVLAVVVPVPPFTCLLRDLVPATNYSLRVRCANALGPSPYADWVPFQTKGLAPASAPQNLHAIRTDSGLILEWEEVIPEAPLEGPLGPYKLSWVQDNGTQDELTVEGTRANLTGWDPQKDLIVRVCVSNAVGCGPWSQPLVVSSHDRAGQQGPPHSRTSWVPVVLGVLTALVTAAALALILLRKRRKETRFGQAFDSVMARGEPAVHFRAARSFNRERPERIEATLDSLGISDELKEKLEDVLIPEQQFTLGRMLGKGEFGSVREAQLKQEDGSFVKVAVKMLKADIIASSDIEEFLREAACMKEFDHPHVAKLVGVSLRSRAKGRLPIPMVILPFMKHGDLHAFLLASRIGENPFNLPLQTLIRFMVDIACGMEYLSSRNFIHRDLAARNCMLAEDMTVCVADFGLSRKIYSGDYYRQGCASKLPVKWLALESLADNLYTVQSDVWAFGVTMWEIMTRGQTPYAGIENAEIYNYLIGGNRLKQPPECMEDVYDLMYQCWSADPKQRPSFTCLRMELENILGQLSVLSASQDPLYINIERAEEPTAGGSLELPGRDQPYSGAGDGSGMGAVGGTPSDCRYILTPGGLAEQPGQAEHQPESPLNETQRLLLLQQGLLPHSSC

The target of experiment [11] is T3, Aurora kinase A (Homo sapiens, UniProt O14965).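 Further: value from the Navigating the Kinome kinase panel profiling, panel entry STK6.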
T3 sequence (O14965 whole entry): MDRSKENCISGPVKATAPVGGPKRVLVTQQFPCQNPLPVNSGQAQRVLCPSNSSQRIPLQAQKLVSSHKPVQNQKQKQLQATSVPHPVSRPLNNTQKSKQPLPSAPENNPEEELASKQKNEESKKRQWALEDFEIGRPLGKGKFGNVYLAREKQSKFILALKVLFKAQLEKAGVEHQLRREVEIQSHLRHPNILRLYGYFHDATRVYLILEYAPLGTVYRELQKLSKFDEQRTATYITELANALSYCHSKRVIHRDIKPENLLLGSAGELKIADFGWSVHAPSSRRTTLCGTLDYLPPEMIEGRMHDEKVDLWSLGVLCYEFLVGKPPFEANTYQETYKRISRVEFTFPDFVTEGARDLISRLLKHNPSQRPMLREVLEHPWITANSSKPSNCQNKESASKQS

The target of experiment [12] is Calcium/calmodulin-dependent protein kinase type II subunit alpha (Homo sapiens, UniProt Q9UQM7). As to the kind of experiment: Navigating the Kinome. Panel member name: CAMK2A.
Chain of Calcium/calmodulin-dependent protein kinase type II subunit alpha (Q9UQM7 whole entry): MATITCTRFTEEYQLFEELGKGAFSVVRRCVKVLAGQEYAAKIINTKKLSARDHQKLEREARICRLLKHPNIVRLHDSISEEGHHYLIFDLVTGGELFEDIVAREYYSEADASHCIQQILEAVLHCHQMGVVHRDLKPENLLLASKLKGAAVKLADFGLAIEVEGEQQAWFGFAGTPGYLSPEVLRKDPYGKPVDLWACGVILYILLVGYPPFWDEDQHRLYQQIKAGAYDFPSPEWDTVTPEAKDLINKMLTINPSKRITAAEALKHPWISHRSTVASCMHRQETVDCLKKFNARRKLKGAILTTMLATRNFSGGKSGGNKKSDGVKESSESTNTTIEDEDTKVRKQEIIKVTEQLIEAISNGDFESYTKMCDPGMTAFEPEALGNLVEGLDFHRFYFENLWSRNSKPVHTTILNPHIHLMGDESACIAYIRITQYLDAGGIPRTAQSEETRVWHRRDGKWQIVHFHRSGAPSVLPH
The target of experiment [13] is Focal adhesion kinase 1 (Homo sapiens, UniProt Q05397).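 Further: measured as one member of a kinome panel.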
Experiment [14] deals with Rho-associated protein kinase 1 (Homo sapiens, UniProt Q13464).
Experiment [15] has as its target Death-associated protein kinase 3 (Homo sapiens, UniProt O43293).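 Further: measured as one member of a kinome-wide profiling panel.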
Experiment [16] concerns the target Dual specificity protein kinase CLK2 (Homo sapiens, UniProt P49760).

Chain of Dual specificity protein kinase CLK2 (P49760 whole entry): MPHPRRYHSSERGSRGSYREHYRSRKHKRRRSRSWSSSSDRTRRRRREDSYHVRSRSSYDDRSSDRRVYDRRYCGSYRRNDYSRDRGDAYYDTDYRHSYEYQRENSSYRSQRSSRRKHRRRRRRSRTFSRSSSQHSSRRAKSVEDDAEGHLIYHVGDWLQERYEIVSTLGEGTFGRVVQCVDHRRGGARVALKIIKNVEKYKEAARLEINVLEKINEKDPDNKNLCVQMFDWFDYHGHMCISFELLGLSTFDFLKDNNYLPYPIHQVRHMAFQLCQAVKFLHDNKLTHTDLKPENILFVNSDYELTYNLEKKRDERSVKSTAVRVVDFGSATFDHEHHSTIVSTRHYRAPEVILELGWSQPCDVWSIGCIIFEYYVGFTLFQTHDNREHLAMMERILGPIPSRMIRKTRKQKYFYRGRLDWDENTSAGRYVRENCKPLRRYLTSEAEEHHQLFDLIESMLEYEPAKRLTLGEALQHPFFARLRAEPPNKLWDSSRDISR
Chain of Tyrosine-protein kinase Fyn (P06241 whole entry): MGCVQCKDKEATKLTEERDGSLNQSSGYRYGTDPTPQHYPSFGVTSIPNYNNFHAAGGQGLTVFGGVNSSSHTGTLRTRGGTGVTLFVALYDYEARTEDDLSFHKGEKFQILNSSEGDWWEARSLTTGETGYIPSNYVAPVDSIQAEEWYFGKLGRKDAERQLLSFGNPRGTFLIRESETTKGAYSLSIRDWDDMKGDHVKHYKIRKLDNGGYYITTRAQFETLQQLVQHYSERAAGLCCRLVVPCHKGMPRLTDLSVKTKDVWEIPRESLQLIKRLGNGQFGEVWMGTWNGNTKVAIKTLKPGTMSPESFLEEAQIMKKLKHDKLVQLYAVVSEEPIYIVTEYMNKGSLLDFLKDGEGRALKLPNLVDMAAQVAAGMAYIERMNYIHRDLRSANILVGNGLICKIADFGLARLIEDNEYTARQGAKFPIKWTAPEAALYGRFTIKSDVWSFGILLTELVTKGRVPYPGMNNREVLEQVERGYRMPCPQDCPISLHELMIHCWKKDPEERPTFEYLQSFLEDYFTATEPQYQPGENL
Chain of Macrophage-stimulating protein receptor (Q04912 25-304 limits assumed): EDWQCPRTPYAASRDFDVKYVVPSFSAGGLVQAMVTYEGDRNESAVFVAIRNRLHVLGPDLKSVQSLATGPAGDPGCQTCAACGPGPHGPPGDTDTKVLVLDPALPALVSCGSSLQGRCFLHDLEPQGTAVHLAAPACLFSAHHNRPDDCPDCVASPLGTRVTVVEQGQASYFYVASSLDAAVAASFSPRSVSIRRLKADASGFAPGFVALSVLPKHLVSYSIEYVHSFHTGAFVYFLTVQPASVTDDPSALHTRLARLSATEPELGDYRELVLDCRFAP
Chain of Macrophage-stimulating protein receptor (Q04912 310-1400 limits assumed): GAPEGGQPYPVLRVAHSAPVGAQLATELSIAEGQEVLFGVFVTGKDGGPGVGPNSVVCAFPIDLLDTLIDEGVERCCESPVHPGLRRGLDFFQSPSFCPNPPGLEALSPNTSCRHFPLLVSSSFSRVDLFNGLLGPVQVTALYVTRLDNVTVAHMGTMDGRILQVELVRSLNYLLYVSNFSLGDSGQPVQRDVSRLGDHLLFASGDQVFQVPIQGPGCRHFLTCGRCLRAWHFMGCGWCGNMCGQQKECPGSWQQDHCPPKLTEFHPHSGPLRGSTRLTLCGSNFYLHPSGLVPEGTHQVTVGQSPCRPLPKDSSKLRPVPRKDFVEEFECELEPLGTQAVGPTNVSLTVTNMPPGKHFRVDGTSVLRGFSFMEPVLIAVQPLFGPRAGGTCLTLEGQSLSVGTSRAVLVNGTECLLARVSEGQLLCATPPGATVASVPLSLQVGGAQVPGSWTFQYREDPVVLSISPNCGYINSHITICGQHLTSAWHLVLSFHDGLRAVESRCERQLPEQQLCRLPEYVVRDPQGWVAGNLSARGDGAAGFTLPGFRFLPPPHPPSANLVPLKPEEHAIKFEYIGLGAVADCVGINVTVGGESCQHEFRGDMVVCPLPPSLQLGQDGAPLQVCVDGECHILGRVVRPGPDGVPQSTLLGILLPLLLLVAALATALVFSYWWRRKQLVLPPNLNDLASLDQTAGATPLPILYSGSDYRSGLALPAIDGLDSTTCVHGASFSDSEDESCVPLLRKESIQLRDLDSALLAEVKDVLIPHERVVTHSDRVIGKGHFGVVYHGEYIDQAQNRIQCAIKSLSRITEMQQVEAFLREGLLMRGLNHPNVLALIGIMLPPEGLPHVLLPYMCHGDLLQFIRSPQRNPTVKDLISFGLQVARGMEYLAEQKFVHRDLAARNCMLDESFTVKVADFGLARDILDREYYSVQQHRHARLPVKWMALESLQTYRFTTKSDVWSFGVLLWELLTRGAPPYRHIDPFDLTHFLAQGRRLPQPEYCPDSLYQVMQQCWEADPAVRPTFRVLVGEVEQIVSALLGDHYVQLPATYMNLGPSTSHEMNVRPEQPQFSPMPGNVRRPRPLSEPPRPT
Chain of Dual specificity mitogen-activated protein kinase kinase 1 (Q02750 whole entry): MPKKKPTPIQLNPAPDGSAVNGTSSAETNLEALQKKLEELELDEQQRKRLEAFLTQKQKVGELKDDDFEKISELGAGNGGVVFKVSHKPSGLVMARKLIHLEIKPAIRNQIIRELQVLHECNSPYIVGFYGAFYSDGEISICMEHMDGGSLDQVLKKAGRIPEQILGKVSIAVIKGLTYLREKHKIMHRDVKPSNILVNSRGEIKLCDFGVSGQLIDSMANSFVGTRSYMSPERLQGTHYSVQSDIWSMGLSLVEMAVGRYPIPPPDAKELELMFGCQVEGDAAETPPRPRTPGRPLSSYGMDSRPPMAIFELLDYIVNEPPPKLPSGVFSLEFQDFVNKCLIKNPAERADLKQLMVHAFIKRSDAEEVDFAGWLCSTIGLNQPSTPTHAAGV
Chain of Death-associated protein kinase 3 (O43293 whole entry): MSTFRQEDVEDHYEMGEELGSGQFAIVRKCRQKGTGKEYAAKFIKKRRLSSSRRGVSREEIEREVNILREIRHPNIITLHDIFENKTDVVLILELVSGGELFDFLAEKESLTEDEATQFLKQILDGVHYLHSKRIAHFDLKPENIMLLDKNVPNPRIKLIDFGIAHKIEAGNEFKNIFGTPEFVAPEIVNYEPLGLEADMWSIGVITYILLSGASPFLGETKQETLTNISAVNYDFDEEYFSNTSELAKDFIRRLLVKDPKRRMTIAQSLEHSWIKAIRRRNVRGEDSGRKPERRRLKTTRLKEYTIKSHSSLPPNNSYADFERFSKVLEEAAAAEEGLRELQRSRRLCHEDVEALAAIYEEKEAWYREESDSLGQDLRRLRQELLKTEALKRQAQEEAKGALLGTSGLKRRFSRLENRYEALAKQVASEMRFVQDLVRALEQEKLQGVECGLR

For orientation: Ki means the equilibrium dissociation constant of an inhibitor or competing ligand from its target. Take `Cc1ccc(C)c(NC(=O)c2cc(-c3ccco3)nc3ccccc23)c1`: the Ki in experiment [1] was 631 nM (active); in experiment [2], 2000 nM (active); in experiment [3] it was > 6310 nM (inactive); in experiment [4], > 3160 nM (inactive); in [5], 1260 nM (active); in [6], 1260 nM (active). Besides, the Ki was > 3980 nM (inactive) in experiment [7]; 1000 nM (active) in experiment [8]; 3980 nM (active) in [9]; 316 nM (active) in [10]; 1000 nM (active) in [11]; 3160 nM (active) in experiment [12]. For the same molecule, the Ki in experiment [13] was 3160 nM (active); in [14], > 3980 nM (inactive); in [15] it was 5010 nM (active); in experiment [16], > 3980 nM (inactive).
For the molecule `CN1CCC(c2c(O)cc(O)c3c(=O)cc(-c4ccccc4Cl)oc23)C(O)C1` (stereo not drawn), the Ki in experiment [1] is 794 nM (active); in experiment [2], > 2510 nM (inactive); in [3] it was > 3160 nM (inactive); in [4] it was > 3160 nM (inactive); in experiment [5], 794 nM (active); in experiment [6], > 6310 nM (inactive). Also, the Ki in experiment [7] was > 3980 nM (inactive); in [8] it was 126 nM (active); in experiment [9], > 3980 nM (inactive); in experiment [10], > 2510 nM (inactive); in experiment [11], > 1580 nM (inactive); in [12], > 3980 nM (inactive). In addition, the Ki in experiment [13] was > 3980 nM (inactive); in experiment [14], > 6310 nM (inactive); in experiment [15], > 3160 nM (inactive); in experiment [16] it was > 3160 nM (inactive).
`COc1ccc(C2=NNc3cccc4c(OC)ccc2c34)cc1OC`: the Ki in [1] was 79.4 nM (active); in experiment [2], 200 nM (active); in [3], > 6310 nM (inactive); in experiment [4] it was > 3160 nM (inactive); in experiment [5] it was > 6310 nM (inactive); in experiment [6], 200 nM (active). In addition, the Ki in experiment [7] was 3160 nM (active); in experiment [8] it was 316 nM (active); in experiment [9], 501 nM (active); in [10] it was 1000 nM (active); in [11], > 1580 nM (inactive); in experiment [12] it was > 3980 nM (inactive). The Ki was 794 nM (active) in [13], 501 nM (active) in [14], 794 nM (active) in [15] and 316 nM (active) in [16].
